# Where two headings read alike, the source gives them in different places.
# Tests used:
# [1] = system: HepG2 cells; assay: Annexin V-FITC/PI apoptosis/necrosis, HepG2; type: cell-based, human; details: compound 50 µM, 24 h
# Method: (§1) The cells were then equally divided for each assay.
# (§2) For the assessment of apoptotic/necrotic cell death, an Annexin V-FITC (Thermo Fisher Scientific, Waltham, MA, USA) and propidium iodide (PI; Merck, Darmstadt, Germany) double-staining assay was used to evaluate the apoptotic/necrotic cell death induced by T. carnosus extracts and by individual phytochemicals, as described previously. Briefly, after detachment and washing, the supernatant was discarded, and 200 µL of Annexin V-FITC (1:200 dilution in Annexin-binding buffer [10 mM HEPES sodium salt, 150 mM NaCl, 5 mM KCl, 5 mM MgCl2, and 1.8 mM CaCl2; pH = 7.4]) was added. Cells were incubated for 20 min (room temperature, in the dark). After incubation, 5 µL of propidium iodide (PI; 50 µg/mL) was added, the cells were incubated for 5 min on ice (in the dark), and the data were acquired.
# [2] = system: HepG2 cells; assay: Intracellular ROS (DCFDA, flow cytometry), HepG2; type: cell-based, human; details: compound 50 µM, 24 h
# Method: as §1
# (§3) Intracellular ROS level assessment was performed as described by Silva et al., 2022 [65], using dichlorodihydrofluorescein diacetate (DCFDA). Cells obtained in the previous step were centrifuged, the supernatant discarded, and 200 µL of DCFDA (10 µM in FBS-free DMEM) was added. Cells were incubated for 45 min (37 °C, in the dark), washed to remove excess probe, and resuspended in PBS for data acquisition.
# [3] = system: human lung cancer (A549) cells; details: cited from earlier work
# [4] = system: HepG2 cells; assay: Mitochondrial membrane potential (JC-1, flow cytometry), HepG2; type: cell-based, human; details: compound 50 µM, 24 h
# Method: (§4) Flow cytometry was used to analyze the effect of T. carnosus extracts on intracellular ROS, modulation of mitochondrial membrane potential (MMP), cell cycle arrest, and apoptotic/necrotic cell death induction.
# (§5) Both one- and two-color assays were performed using a BD Accuri™ C6 cytometer (Becton Dickinson, Franklin Lakes, NJ, USA), and 10,000 gated events were collected from each sample [1]. For flow cytometry assays, cells were handled as described previously but seeded at a density 5 × 10^4 cells/mL (750 μL/well) in 12-well plates. Caco-2 and HepG2 cells were incubated for 24 h with the extracts (100 µg/mL) or individual phytochemicals (50 µM) diluted in FBS-free culture media h. After incubation, test solutions were removed; the cells were washed with PBS and detached from the plates using trypsin-EDTA. Once transferred to centrifuge tubes, the cells were centrifuged (bench micro-centrifuge; 3000 rpm; 3 min), the supernatant was discarded, and a new wash cycle was performed. The cells were then equally divided for each assay. A negative control was used in all assays consisting of nonexposed cells incubated only with culture media.
# (§6) Mitochondrial membrane potential (MMP) was evaluated using 5,5″,6,6″-tetrachloro-1,1″,3,3″-tetraethylbenzimidazolylcarbocyanineiodide (JC-1). Cells were processed as described for DCFDA but incubated with 200 µL of JC-1 (2 µM, in FBS-free DMEM) for 20 min (37 °C, in the dark).
# [5] = system: Caco-2 cells; assay: Intracellular ROS (DCFDA, flow cytometry), Caco-2; type: cell-based; details: compound 50 µM, 24 h
# Method: as §1, §3
# [6] = system: Caco-2 cells; assay: Alamar Blue cell viability assay, Caco-2; type: cell-based, human; details: for IC50: Homo sapiens
# Method: (§7) The safety profile of T. carnosus AD and HE extracts was evaluated in Caco-2 and HepG2 cells using an Alamar Blue® (Invitrogen; Alfagene, Lisboa, Portugal) assay. An initial screening was performed for all extracts at concentrations ranging between 100 and 1000 µg/mL. Due to the higher toxicity of the HE extracts, which was previously described for various extracts of Thymus species using the same extraction methods (e.g., T. mastichina and Thymus zygis), a different set of concentrations was used for the HE extracts (between 100 and 300 µg/mL for Caco-2 cells and 50 and 150 µg/mL for HepG2 cells). Figure 1 presents the data related to the cell viability assays in Caco-2 (panels A–E) and HepG2 cells (panels F–J) exposed to T. carnosus extracts, as indicated.
# (§8) The safety profile of T. carnosus extracts was assessed in Caco-2 and HepG2 cells. Caco-2 (human colon adenocarcinoma cell line) were obtained from CLS (Cell Lines Service, Eppelheim, Germany), and HepG2 (human hepatocellular carcinoma cell line) were obtained from ATCC (American Type Culture Collection, Manassas, VA, USA).
# (§9) Cell culture maintenance, handling, subculturing, and seeding were performed as described by Silva et al., 2020 [5], and cell viability was assessed using an Alamar Blue® assay, as described by Andreani et al., 2014 [64]. Concentrations ranged between 100 and 1000 µg/mL for AD extracts in both cell lines and 100 to 300 µg/mL or 50 to 150 µg/mL for HE extracts in Caco-2 and HepG2 cells, respectively. The effect of individual compounds on cell viability was assessed for concentrations ranging from 50 to 300 µM. All test solutions were prepared by diluting the samples in FBS-free culture media from the stock solutions described in Section 3.2, just prior to being used.
# (§10) The results are presented as mean ± SD of at least three independent assays. The calculation of IC50 values was performed as described by Silva et al., 2020 [5]. Data analysis, graphical design, and statistical analysis were performed using Microsoft Office Excel (Professional Plus 2019; Microsoft Corporation, Washington, DC, USA) and GraphPad Prism (Version 8; GraphPad Software Inc., San Diego, CA, USA). Flow cytometry data analysis was performed using BD Accuri™ C6 Software, version 1.0.264.21 (Becton Dickinson, San Diego, CA, USA).
# [7] = Alamar Blue cell viability assay, Caco-2; type: cell-based, human; details: human, Caco-2
# Method: as §7, §8, §9, §10
# [8] = system: HepG2 cells; assay: Alamar Blue cell viability assay, HepG2; type: cell-based, human; details: for IC50: Homo sapiens
# Method: as §7, §8, §9, §10
# [9] = Alamar Blue cell viability assay, HepG2; type: cell-based, human; details: human, HepG2 cells
# Method: as §7, §8, §9, §10
# [10] = system: Caco-2 cells; assay: Annexin V-FITC/PI apoptosis/necrosis, Caco-2; type: cell-based; details: compound 50 µM, 24 h
# Method: as §1, §2
# [11] = system: normal and tumoral human nasopharyngeal cells; set-up: method as in PMID 33277860; details: 24 h; cited from earlier work
# [12] = system: HepG2 cells; assay: Cell cycle arrest (PI, flow cytometry), HepG2; type: cell-based, human; details: compound 50 µM, 24 h
# Method: as §1
# (§11) Cell cycle arrest assessment was performed as described in [1]. Cells were processed as described above until cell detachment and centrifuged, after which the second washing step was performed with ice-cold PBS (0 °C). After centrifugation, the supernatant was discarded, and cells were fixed with 500 µL of ethanol:PBS solution (70:30, % v/v, previously cooled at −20 °C) for at least 4 h at −20 °C. After fixation, two washing cycles were performed: the first with ice-cold PBS (0 °C) and the second with room-temperature PBS, followed by the addition of 200 µL of a PBS solution containing PI (50 µg/mL), RNAse A (50 µg/mL), and Triton X-100 (0.1%). Cells were incubated for 30 min at 37 °C, and then cells were washed once with PBS to remove the staining solution. After resuspension in PBS, the data were acquired.
# [13] = system: HepG2 cells; details: 24 h of exposure; cited from earlier work
# [14] = system: human prostate cancer cells; set-up: method as in PMID 29898731; details: 40 µM; cited from earlier work
# [15] = system: Caco-2 cells; details: cited from earlier work
# [16] = system: Caco-2 cells; assay: Cell cycle arrest (PI, flow cytometry), Caco-2; type: cell-based; details: compound 50 µM, 24 h
# Method: as §1, §11
# [17] = system: murine melanoma cells (B16-BL6 cells); set-up: method as in PMID 15538571; details: cited from earlier work
# [18] = system: HeLa cells; details: cited from earlier work
# [19] = system: human prostate carcinoma (DU 145) cells; details: cited from earlier work
# [20] = system: HONE-2 nasopharyngeal carcinoma cells; set-up: method as in PMID 31981746; details: 50 µM; cited from earlier work
# [21] = system: Caco-2 cells; details: compound 50 µM, 24 h
# Method: as §4, §5, §6
# [22] = system: NPC-39 nasopharyngeal carcinoma cells; set-up: method as in PMID 31981746; details: 50 µM; cited from earlier work
# [23] = system: HCT-116 human colorectal carcinoma cells; details: cited from earlier work
# [24] = system: DLD-1, Dukes-type C colorectal adenocarcinoma; details: cited from earlier work
# [25] = system: human small cell lung cancer cells (SCLCs); set-up: method as in doi:10.4314/tjpr.v14i8.11; details: 50 and 100 µM; cited from earlier work
# [26] = system: human lung adenocarcinoma (H1975) cells; details: cited from earlier work
# [27] = Caco-2, 24 h exposure, read-out: IC50 (µM) - Caco-2 cells: 24 h
# [28] = Caco-2, 48 h exposure, read-out: IC50 (µM) - Caco-2 cells: 48 h
# [29] = HepG2, 24 h exposure, read-out: IC50 (µM) - HepG2 cells: 24 h
# [30] = HepG2, 48 h exposure, read-out: IC50 (µM) - HepG2 cells: 48 h
compound,measurement,setting,value
"O=C1C[C@@H](c2ccc(O)c(O)c2)Oc2cc(O)cc(O)c21 [Eriodictyol, eriodictyol]","cell death induction, HepG2",[1],induced apoptosis and necrosis
same,"change in intracellular ROS, HepG2",[2],significant (p < 0.05) increase in intracellular HepG2 ROS levels
same,"cell cycle effect, A549",[3],cell cycle arrest in the G2/M phase
same,concentrations reducing the MMP in A549 cells,[3],≥ 25 µM
same,"MMP modulation, HepG2",[4],hyperpolarization of the mitochondrial membrane
same,"change in intracellular ROS, Caco-2",[5],neither RA nor eriodictyol induced ROS increases
same,reduction of Caco-2 cell viability,"[6]; 48 h, concentration not given",~ 81%
same,IC50,"[6]; Caco-2, 24 h, read-out: IC50 (µM) - Caco-2 cells: 24 h",245 ± 13.7 µM
same,IC50,"[6]; Caco-2, 48 h, read-out: IC50 (µM) - Caco-2 cells: 48 h",82.5 µM
same,viability at 48 h,"[7]; 48 h, concentration not given, read-out: cell viability, Caco-2 (% of control)",~19%
same,IC50,"[8]; HepG2, 24 h, read-out: IC50 (µM) - HepG2 cells: 24 h",> 300 µM
same,IC50,"[8]; HepG2, 48 h, read-out: IC50 (µM) - HepG2 cells: 48 h",231 ± 23.2 µM
same,viability at 24 h,"[9]; 24 h, concentration not given",56.9%
same,viability at 48 h,[9]; concentration not given,43.2%
same,"cell death induction, Caco-2",[10],induced apoptosis and necrosis
same,"concentrations inducing cytotoxicity, nasopharyngeal cells",[11],≥ 5 µM
"O=c1c(O)c(-c2ccc(O)c(O)c2)oc2cc(O)cc(O)c12 [Quercetin, quercetin]",% of healthy HepG2 cells,[1],~ 76%
same,"cell death induction, HepG2",[1],shift in the cell population to both early and late apoptosis
same,"cell cycle effect, HepG2",[12],cell cycle arrest was observed in the G0/G1 phase
same,"change in intracellular ROS, HepG2",[2],significant increase in ROS
same,concentrations reducing HepG2 cell viability,[13],≥ 33 µM
same,"MMP modulation, prostate cancer cells",[14],loss of MMP
same,"MMP modulation, HepG2",[4],did not induce variations in the MMP
same,"cell viability, Caco-2","[15]; 50 µM, 48 h",75–80%
same,effect on Caco-2 cell viability,"[15]; 100 µM, 24 h",no changes in cell viability
same,"cell cycle effect, Caco-2",[16],cell cycle arrest in the S and G2/M phases
same,concentrations giving significant decrease in Caco-2 cell viability,[6]; 24 h,≥ 75 µM
same,IC50,[6]; [27],> 300 µM
same,IC50,[6]; [28],109 µM
same,"viability at 48 h, 50 µM","[7]; 50 µM, 48 h, Figure 2E",77.6%
same,viability at 48 h,"[7]; 50-100 µM, 48 h, read-out: cell viability, Caco-2",≥ 68%
same,viability at 24 h,"[7]; concentrations up to 200 µM, 24 h, Figure 2E",~90%
same,concentrations reducing HepG2 cell viability,"[8]; 50 µM = lowest concentration tested, Figure 2M",≥ 50 µM
same,IC50,[8]; [29],141 µM
same,IC50,[8]; [30],10.1 µM
same,viability at 48 h,[9]; 50-100 µM,≤ 20%
same,% of healthy Caco-2 cells,[10],~ 86%
same,"cell death induction, Caco-2",[10],shift in the cell distribution into late apoptosis
same,"MMP modulation, B16-BL6",[17],loss of MMP
"O=C(/C=C/c1ccc(O)c(O)c1/C=C/c1ccc(O)c(O)c1)O[C@H](Cc1ccc(O)c(O)c1)C(=O)O [Salvianolic acid A, salvianolic acid A]",IC50,[18],≤ 30 µM
same,IC50,[3],≤ 30 µM
same,IC50,[19],≤ 30 µM
same,"effect on cell viability, HONE-2",[20],no reduction in cell viability
same,"MMP modulation, Caco-2",[21],significant loss of MMP
same,"effect on cell viability, NPC-39",[22],no reduction in cell viability
same,IC50,[6]; [27],> 300 µM
same,IC50,[6]; [28],> 300 µM
same,"viability at 48 h, 300 µM",[7],54.4%
same,"concentrations with no or low cytotoxicity, HCT-116",[23],up to 50 µM
same,IC50,[8]; [29],> 300 µM
same,IC50,[8]; [30],> 300 µM
same,"concentrations with no or low cytotoxicity, DLD-1",[24],up to 50 µM
same,"MMP modulation, SCLC cells",[25],loss of MMP
same,IC50,[26],≤ 30 µM
